For one test, the system named is HCE cells. The test is described as follows: Cell sprouting assay, HCE cells embedded in MATRIGEL
The test is classed as cell-based, Human. The note with it: 50 μM, 72 hours, compared to vehicle only control. Here is the method: Cell Sprouting Assay. A cell sprouting assay was performed using HCE cells in a solubilized basement membrane sold under the tradename MATRIGEL® (reduced and diluted in MEM 1:1; Corning Life Sciences, Tewksbury, Mass.). HCE cells were embedded in the solubilized basement membrane at 5×10^5 cells/10 μL spot. The cell spotted plates were then exposed to reduced serum media (0.5% FBS) (untreated negative control), Hst5 (50 μM), or 10% FBS (positive control). HCE cell migration was then followed with time lapse microscopy and imaged at 4× (Image Express Micro; Molecular Devices, CA). Cell covered area at a given time point was measured using Image J.
A cell sprouting assay using HCE cells embedded as a spot in growth factor reduced solubilized basement membrane sold under the tradename MATRIGEL® (Corning Life Sciences, Tewksbury, Mass.) was used to determine if HST5 could promote epithelial cell migration. […] A standardized scratch assay using the HCLE cell line tested the effects of Hst5 on cell migration. HCLE cells were grown to confluence and mechanically scratched using a pipette tip. Cells were treated with different concentrations (20, 50, 80 and 100 μM) of Hst5 or left untreated as a control. Time-lapse microscopy was performed and wound areas were analyzed at different time points. […] The most significant increase in scratch closure rates was noticed at 50 μM. […]

Test [1] deals with Human corneal epithelial (HCE) cells. The test is described as follows: In vitro scratch assay, HCE cells. The test is classed as cell-based. The note with it: compared with scrambled peptide control (SP1). How it is done: Human corneal epithelial (HCE) cells were cultured in a Medium Essential Media (MEM; Gibco, Life Technologies, Carlsbad, Calif.). HeLa cells were maintained in Dulbecco's Modified Eagle's Medium (DMEM; Life Technologies, Grand Island, N.Y.). Both media were supplemented with 10% fetal bovine serum (Gibco, Life Technologies, Carlsbad, Calif.) and 1% penicillin-streptomycin (Gibco, Life Technologies, Carlsbad, Calif.). […]
In Vitro Scratch Assay. […] The wound area at each time-point was measured using Image J software (Image J 1.47v, NIH, Thornwood, Bethesda, Md.). Relative wound closure was calculated by dividing the closure of the treated wound by that of the untreated wound. […]
A cell sprouting assay using HCE cells embedded as a spot in growth factor reduced solubilized basement membrane sold under the tradename MATRIGEL® (Corning Life Sciences, Tewksbury, Mass.) was used to determine if HST5 could promote epithelial cell migration. […] Time-lapse microscopy was performed and wound areas were analyzed at different time points. […]
Wound closure rates of the three salt forms were also analyzed in accordance with the methods disclosed herein. In particular, human corneal epithelial cells were scratched using standardized scratch assays and rates of wound healing were measured after application of the acetic acid, hydrochloride and trifluoroacetate salt forms of SHRGY (SEQ ID NO:2).

The subject of test [2] is corneal epithelial wound in C57BLl6J mice. In words: Murine corneal epithelial injury (wound healing) model. The test is classed as in vivo. Here is the method: Wounded areas were treated with Hst5, SHRGY (SEQ ID NO:2) or SP1 peptides (n=7 for each group), each tested at 80 μM concentration. Wound areas at multiple time points were measured using Image J software. […] Statistical significance was determined by a two-way ANOVA with Bonferroni post-hoc test. **P<0.01, ***P<0.001. % Wound area=(Wound area at time X/Wound area at time 0)×100.
Wound Healing Assay. Corneal wounding experiments in mice were conducted in compliance with the Association for Research in Vision and Ophthalmology (ARVO) Statement for the Use of Animals in Ophthalmic and Vision Research. The protocol was approved by the Animal Care & Use Committee of the University of Illinois at Chicago. Twelve-to-nineteen week old C57BLl6J (Jackson Laboratory, Bar Harbor, Me.) mice were anesthetized with intraperitoneal injection of ketamine (100 mg/kg) and xylazine (5 mg/kg). After applying two drops of topical 0.5% proparacaine, a 2.0-mm area of the central epithelium was demarcated using 2-mm disposable biopsy punch and removed by an AlgerBrush II (The Alger Company, Lago Vista, Tex.). In the treatment (n=7) or the control (n=7) group, Histatin=5 (80 μM), SHRGY peptide (SEQ ID NO:2; 80 μM), or SP1 (80 μM) was applied to the cornea three times a day. At 0, 18 and 24 hours, the corneas were stained with fluorescein (FUL-GLO® Fluorescein Sodium ophthalmic strips, Akorn, Lake forest, Ill.) and photographed using a NIKON FS-2 photo-slit lamp with a NIKON D200 camera (Melville, N.Y.). Wound sizes were compared with the baseline for each mouse and the percentages of wound closure was measured using Image J software.
For immunofluorescence, excised whole mouse eye was snap frozen in optimal cutting temperature compound (OCT; (Fisher Healthcare, Galderma, Calif.). The frozen tissues were cut into 10 μm cryosections (ThermoScientific NX50 Cryomicrotome, Waltham, Mass.) and subsequently were mounted on Superfrost plus slides (Thermofisher, Waltham, Mass.). Slides were fixed for 20 minutes in methanol, washed several times with PBS, stained with DAPI for 2 minutes, and further washed with PBS and deionized water. The slides were then mounted in Fluoro gel with Tris buffer (Electron Microscopy Sciences, Hattfield, Pa.) and observed under a confocal microscope (Zeiss LSM 710 Confocal Microscope, Oberkochen, Germany) using a 10× objective.
Thus, Hst5 and SHRGY (SEQ ID NO:2)-containing peptides can enhance wound healing in a well-vetted model of murine corneal epithelial injury.

As to DSHAKRHHGYKRKFHEKHHSHRGY [Hst5], the “cell migration (cell sprouting)” value in the test on HCE cells is “statistically significant increase in cell migration”. The “concentration of statistically significant peak effect on scratch closure” value in test [1] worked out at 80 µM. Moreover, in test [2] (80 μM, 18 hours and 24 hours, compared to SP1, n=7), the “% remaining corneal wound area compared to baseline” value is reported as “statistically significant improvement”. Also, the “corneal wound size, histologic analysis (DAPI cross sections)” value in test [2] (compared to SP1-treated controls) is recorded as “reductions in corneal wound size”. Moreover, the “corneal wound closure rates” value in test [2] (topical, 80 μM, three times a day, vs scrambled peptide control SP1) is “significant improvement in corneal wound closure rates”.

The record behind these values is US20230027620A1, “PENTAPEPTIDE AND METHODS OF USE THEREOF” (THE BOARD OF TRUSTEES OF THE UNIVERSITY OF ILLINOIS, priority 2019, published 2023).
